From patent US8686044B2, “Amide derivative, pest control agent containing the amide derivative, and use of the amide derivative” (Mitsui Chemicals Agro, Inc., priority 2008, dated 2014)

Assays:
Spodoptera litura = experiment: Pesticidal test against Spodoptera litura (cabbage leaf dip); assay type: in vivo; settings: foliar, 144 h, 2-stage larvae, examined after 6 days, 25° C., read-out: pesticidal rate; for pest or weed control at 1 ppm: concentration 1 ppm; for pest or weed control at 10 ppm: concentration 10 ppm
Method: (§1) Pesticidal Test against Spodoptera litura A piece of a cabbage leaf was immersed for 30 seconds in a chemical solution in which a test compound had been prepared at a predetermined concentration, and air-dried, and then put into a 7 cm polyethylene cup having a filter paper laid on the bottom thereof, and 2-stage larvae of Spodoptera litura were released. They were left to stand in a thermostatic chamber at 25° C., and the numbers of the living pests and the dead pests were examined after 6 days. The test was carried out with five larvae per group in two replicates. Further, the following compound (A) disclosed in the pamphlet of International Publication WO 2005/073165 was used as a comparative compound.

Plutella xylostella = experiment: Pesticidal test against Plutella xylostella (cabbage leaf dip); assay type: in vivo; settings: foliar, 144 h, 2-stage larvae, examined after 6 days, 25° C., read-out: pesticidal rate; for pest or weed control at 1 ppm: concentration 1 ppm; for pest or weed control at 10 ppm: concentration 10 ppm
Method: as §1, with “Plutella xylostella” for “Spodoptera litura”, “above” for “following”, “(A)” for “(A) disclosed in the pamphlet of International Publication WO 2005/073165”

SMILES | pest or weed control at 1 ppm (Spodoptera litura) [%] | pest or weed control at 1 ppm (Plutella xylostella) [%] | pest or weed control at 10 ppm (Spodoptera litura) [%] | pest or weed control at 10 ppm (Plutella xylostella) [%]
N#Cc1ccc(C(=O)Nc2cccc(C(=O)Nc3c(Br)cc(C(F)(C(F)(F)F)C(F)(F)F)cc3C(F)(F)F)c2)c(F)c1 [6-300] | ≥ 70 | ≥ 70 | – | –
O=C(Nc1cccc(C(=O)Nc2c(I)cc(C(F)(C(F)(F)F)C(F)(F)F)cc2C(F)(F)F)c1)c1ccc(Cl)nc1 [6-467] | ≥ 70 | ≥ 70 | – | –
CN(C(=O)c1ccc(C#N)cc1F)c1cccc(C(=O)Nc2c(Br)cc(C(F)(C(F)(F)F)C(F)(F)F)cc2C(F)(F)F)c1 [7-300] | ≥ 70 | ≥ 70 | – | –
CN(C(=O)c1ccc(Cl)nc1)c1cc(C(=O)Nc2c(Cl)cc(C(F)(C(F)(F)F)C(F)(F)F)cc2C(F)(F)F)ccc1C#N [2-513] | – | ≥ 70 | ≥ 70 | –
O=C(Nc1cccc(C(=O)Nc2c(I)cc(C(F)(C(F)(F)F)C(F)(F)F)cc2C(F)(F)F)c1)c1ccccc1 [6-424] | ≥ 70 | ≥ 70 | – | –
CN(C(=O)c1ccccc1)c1cccc(C(=O)Nc2c(I)cc(C(F)(C(F)(F)F)C(F)(F)C(F)(F)F)cc2I)c1 (centres unmarked) [7-71] | ≥ 70 | ≥ 70 | – | –
CN(C(=O)c1cccnc1Cl)c1cccc(C(=O)Nc2c(Cl)cc(C(F)(C(F)(F)F)C(F)(F)F)cc2C(F)(F)F)c1 [7-147] | ≥ 70 | ≥ 70 | – | –
N#Cc1ccc(C(=O)Nc2c(Cl)cc(C(F)(C(F)(F)F)C(F)(F)F)cc2C(F)(F)F)cc1NC(=O)c1ccccc1 [1-470] | ≥ 70 | – | – | ≥ 70
CN(C(=O)c1cccc(C#N)c1)c1cccc(C(=O)Nc2c(C(F)(F)F)cc(C(F)(C(F)(F)F)C(F)(F)F)cc2C(F)(F)F)c1 [7-824] | ≥ 70 | ≥ 70 | – | –
CN(C(=O)c1cccc(NC(=O)c2cccc(C#N)c2)c1)c1c(C(F)(F)F)cc(C(F)(C(F)(F)F)C(F)(F)F)cc1C(F)(F)F [8-824] | ≥ 70 | ≥ 70 | – | –
O=C(Nc1cccc(C(=O)Nc2c(Br)cc(C(F)(C(F)(F)F)C(F)(F)C(F)(F)F)cc2Br)c1)c1ccc(Cl)nc1 (centres unmarked) [6-60] | ≥ 70 | – | – | ≥ 70
CN(C(=O)c1ccc(C#N)cc1)c1cccc(C(=O)Nc2c(Br)cc(C(F)(C(F)(F)F)C(F)(F)C(F)(F)F)cc2Br)c1 (centres unmarked) [7-46] | ≥ 70 | ≥ 70 | – | –
O=C(Nc1cccc(C(=O)Nc2c(Cl)cc(C(F)(C(F)(F)F)C(F)(F)F)cc2Br)c1F)c1ccccc1 [6-5902] | ≥ 70 | – | – | –
CN(C(=O)c1cccc(C#N)c1)c1cccc(C(=O)Nc2c(Br)cc(C(F)(C(F)(F)F)C(F)(F)C(F)(F)F)cc2Br)c1 (centres unmarked) [7-45] | ≥ 70 | ≥ 70 | – | –
CN(C(=O)c1cccnc1Cl)c1cc(C(=O)Nc2c(Br)cc(C(F)(C(F)(F)F)C(F)(F)F)cc2C(F)(F)F)ccc1F [7-3384] | ≥ 70 | ≥ 70 | – | –
CN(C(=O)c1cccnc1Cl)c1nc(C(=O)Nc2c(Br)cc(C(F)(C(F)(F)F)C(F)(F)F)cc2C(F)(F)F)cs1 [27-663] | ≥ 70 | – | – | ≥ 70
O=C(Nc1c(I)cc(C(F)(C(F)(F)F)C(F)(F)F)cc1C(F)(F)F)c1cccc(NC(=O)c2ccc([N+](=O)[O-])cc2Cl)c1 [6-454] | – | – | ≥ 70 | ≥ 70
CN(C(=O)c1ccccc1F)c1cccc(C(=O)Nc2c(I)cc(C(F)(C(F)(F)F)C(F)(F)F)cc2C(F)(F)F)c1 [7-425] | ≥ 70 | ≥ 70 | – | –
CN(C(=O)c1cccc(C#N)c1)c1cccc(C(=O)Nc2c(I)cc(C(F)(C(F)(F)F)C(F)(F)C(F)(F)F)cc2I)c1 (centres unmarked) [7-78] | ≥ 70 | ≥ 70 | – | –
CN(C(=O)c1ccc(C#N)cc1)c1cccc(C(=O)Nc2c(I)cc(C(F)(C(F)(F)F)C(F)(F)C(F)(F)F)cc2I)c1 (centres unmarked) [7-79] | ≥ 70 | ≥ 70 | – | –
CN(C(=O)c1ccc(C#N)cc1)c1cccc(C(=O)Nc2c(Cl)cc(C(F)(C(F)(F)F)C(F)(F)F)cc2Cl)c1F [7-969] | ≥ 70 | ≥ 70 | – | –
O=C(Nc1cccc(C(=O)Nc2c(C(F)(F)F)cc(C(F)(C(F)(F)F)C(F)(F)F)cc2C(F)(F)F)c1)c1ccccc1 [6-804] | ≥ 70 | ≥ 70 | – | –
N#Cc1cccc(C(=O)Nc2cccc(C(=O)Nc3c(C(F)(F)F)cc(C(F)(C(F)(F)F)C(F)(F)F)cc3C(F)(F)F)c2)c1 [6-824] | ≥ 70 | ≥ 70 | – | –

SMILES | pest or weed control at 1 ppm (Spodoptera litura) [%] | pest or weed control at 1 ppm (Plutella xylostella) [%] | pest or weed control at 10 ppm (Spodoptera litura) [%] | pest or weed control at 10 ppm (Plutella xylostella) [%]
CN(C(=O)c1ccc(C#N)cc1)c1cccc(C(=O)Nc2c(Cl)cc(C(F)(C(F)(F)F)C(F)(F)F)cc2C(F)(F)F)c1 [7-132] | ≥ 70 | ≥ 70 | – | –
CN(C(=O)c1cccc(NC(=O)c2cccc(C#N)c2)c1)c1c(Br)cc(C(F)(C(F)(F)F)C(F)(F)F)cc1C(F)(F)F [8-288] | ≥ 70 | ≥ 70 | – | –
CN(C(=O)c1ccccc1)c1cccc(C(=O)Nc2c(C(F)(F)F)cc(C(F)(C(F)(F)F)C(F)(F)F)cc2C(F)(F)F)c1 [7-804] | ≥ 70 | – | – | ≥ 70
O=C(Nc1c(C(F)(F)F)cc(C(F)(C(F)(F)F)C(F)(F)F)cc1C(F)(F)F)c1cccc(NC(=O)c2cccnc2Cl)c1 [6-840] | ≥ 70 | ≥ 70 | – | –
O=C(Nc1cccc(C(=O)Nc2c(Cl)cc(C(F)(C(F)(F)F)C(F)(F)F)cc2C(F)(F)F)c1)c1ccccc1 [6-111] | ≥ 70 | ≥ 70 | – | –
CN(C(=O)c1ccc(F)cc1)c1cccc(C(=O)Nc2c(I)cc(C(F)(C(F)(F)F)C(F)(F)C(F)(F)F)cc2I)c1 (centres unmarked) [7-5905] | ≥ 70 | ≥ 70 | – | –
CN(C(=O)c1ccc(S(C)(=O)=O)cc1)c1cccc(C(=O)Nc2c(Br)cc(C(F)(C(F)(F)F)C(F)(F)F)cc2C(F)(F)F)c1 [7-5908] | – | – | ≥ 70 | ≥ 70
N#Cc1ccc(C(=O)Nc2cccc(C(=O)Nc3c(C(F)(F)F)cc(C(F)(C(F)(F)F)C(F)(F)F)cc3C(F)(F)F)c2)cc1 [6-825] | ≥ 70 | ≥ 70 | – | –
N#Cc1ccc(C(=O)Nc2c(Cl)cc(C(F)(C(F)(F)F)C(F)(F)F)cc2C(F)(F)F)cc1NC(=O)c1cccnc1Cl [1-506] | – | – | ≥ 70 | ≥ 70
O=C(Nc1cccc(C(=O)Nc2c(I)cc(C(F)(C(F)(F)F)C(F)(F)C(F)(F)F)cc2I)c1)c1ccc(Cl)nc1 (centres unmarked) [6-93] | ≥ 70 | – | – | ≥ 70
O=C(Nc1cccc(C(=O)Nc2c(I)cc(C(F)(C(F)(F)F)C(F)(F)F)cc2C(F)(F)F)c1F)c1ccc(F)cc1Cl [6-1755] | ≥ 70 | ≥ 70 | – | –
O=C(Nc1cccc(C(=O)Nc2c(I)cc(C(F)(C(F)(F)F)C(F)(F)C(F)(F)F)cc2C(F)(F)F)c1)c1ccccc1 (centres unmarked) [6-502] | ≥ 70 | ≥ 70 | – | –
CN(C(=O)c1cc(C#N)cc(C#N)c1)c1cccc(C(=O)Nc2c(Br)cc(C(F)(C(F)(F)F)C(F)(F)F)cc2C(F)(F)F)c1 [7-299] | ≥ 70 | ≥ 70 | – | –
O=C(Nc1cccc(C(=O)Nc2c(Br)cc(C(F)(C(F)(F)F)C(F)(F)C(F)(F)F)cc2Br)c1)c1ccccc1 (centres unmarked) [6-38] | ≥ 70 | ≥ 70 | – | –
CN(C(=O)c1cccc(F)c1)c1cccc(C(=O)Nc2c(Br)cc(C(F)(C(F)(F)F)C(F)(F)F)cc2C(F)(F)F)c1 [7-270] | ≥ 70 | – | – | ≥ 70
O=C(Nc1c(I)cc(C(F)(C(F)(F)F)C(F)(F)F)cc1C(F)(F)F)c1cccc(NC(=O)c2ccc(Cl)cc2Cl)c1 [6-448] | ≥ 70 | – | – | ≥ 70
N#Cc1cccc(C(=O)Nc2cccc(C(=O)Nc3c(I)cc(C(F)(C(F)(F)F)C(F)(F)C(F)(F)F)cc3I)c2)c1 (centres unmarked) [6-78] | ≥ 70 | ≥ 70 | – | –
O=C(Nc1cccc(C(=O)Nc2c(Br)cc(C(F)(F)C(F)(F)F)cc2C(F)(F)F)c1)c1ccccc1 [6-5913, 3-benzamide-N-(2-bromo-4-(perfluoroethyl)-6-(trifluoromethyl)phenyl)benzamide] | – | – | ≥ 70 | ≥ 70
N#Cc1ccc(C(=O)Nc2cccc(C(=O)Nc3c(Br)cc(C(F)(C(F)(F)F)C(F)(F)C(F)(F)F)cc3Br)c2)cc1 (centres unmarked) [6-46] | ≥ 70 | ≥ 70 | – | –
N#Cc1ccc(C(=O)Nc2c(Cl)cc(C(F)(C(F)(F)F)C(F)(F)F)cc2C(F)(F)F)cc1NC(=O)c1ccc(Cl)nc1 [1-513] | ≥ 70 | ≥ 70 | – | –
CN(C(=O)c1cccc(NC(=O)c2ccccc2)c1)c1c(C(F)(F)F)cc(C(F)(C(F)(F)F)C(F)(F)F)cc1C(F)(F)F [8-804] | ≥ 70 | – | – | ≥ 70
CN(C(=O)c1cccc(NC(=O)c2ccccc2)c1)c1c(Br)cc(C(F)(C(F)(F)F)C(F)(F)F)cc1C(F)(F)F [8-268] | ≥ 70 | ≥ 70 | – | –
